Measured values: paper PMC10934261, “Designing Potent Anti-Cancer Agents: Synthesis and Molecular Docking Studies of Thieno[2,3-d][1,2,4]triazolo[1,5-a]pyrimidine Derivatives” (Molecules, 2024)

Tests used:
[1] = tested on: human breast MCF-7 cancer cell line; assay: In vitro cytotoxic screening (MTT assay), MCF-7; type: cell-based; details: average ± standard deviation
Method: (§1) Using human breast MCF-7, colorectal HCT-116, and prostate PC-3 cancer cell lines, preliminary antiproliferative effectiveness of cyclopenta[4,5]thieno[2,3-d][1,2,4]triazolo[1,5-a]pyrimidin-9(6H)-ones 4–16 was established in vitro through MTT assay at different concentrations (100, 50, 25 and 12.5 μM) (Figure 2).
(§2) The cell lines were obtained from Karolinska Center, Department of Oncology and Pathology, Karolinska Institute and Hospital, Stockholm, Sweden. as follows: human breast MCF-7, colorectal HCT-116 and prostate PC-3 cancer cell lines and human skin normal BJ-1 cell line. Exponentially, cells were cultured at a concentration of 10^4 cells/well for 24 h, afterwards fresh medium containing different concentrations of the tested samples was added. Serial two-fold dilution of the tested samples were added using a multichannel pipette. Moreover, all cells were cultivated at 37 °C, 5% CO2 and 95% humidity. Also, incubation of control cells occurred at 37 °C. However, after incubation for 24 h different concentrations of samples (100, 50, 25 and 12.5 µM) were added and the incubation was continued for 48 h, then crystal violet solution 1% was added to each well for 0.5 h to examine the presence of viable cells. After rinsing the wells using water until stain free, 30% glacial acetic acid was added to all wells with shaking the plates on a Microplate reader (TECAN, Inc.) to measure the absorbance at a wavelength of 490 nm. The cytotoxicity was estimated by IC50 in μM, which is the concentration that inhibits 50% of growth of cancer cells. […]
(§3) 1.1. In vitro cytotoxic screening
(§4) The cell lines were obtained from Karolinska Center, Department of Oncology and Pathology, Karolinska Institute and Hospital, Stockholm, Sweden. as follows: human breast MCF-7, colorectal HCT-116 and prostate PC-3 cancer cell lines and human skin normal BJ-1 cell line. Exponentially, cells were placed in 10^4 cells/ well for 24 h, and then add fresh medium which containing different concentration of the tested sample. Serial two-fold dilution of the tested sample were added using a multichannel pipette. Moreover, all cells were cultivated at 37 °C, 5% CO2 and 95% humidity. Also, incubation of control cells occurred at 37 °C. However, after incubation for 24 h different concentrations of sample (100, 50, 25 and 12.5 µM) were added and continued the incubation for 48 h, then, add the crystal violet solution 1% to each well for 0.5 h to examine viable cells. Rinse the wells using water until no stain. After that, add 30% glacial acetic acid to all wells with shaking plates on Microplate reader (TECAN, Inc.) to measure the absorbance, using a test wavelength of 490 nm. Besides, compare the treated samples with the control cell. The cytotoxicity was estimated by IC50 in (μ M), the concentration that inhibits 50% of growth of cancer cell. […]
(§5) The molecular docking simulation of the promising in vitro screened cyclopenta[4,5]thieno[2,3-d][1,2,4]triazolo[1,5-a]pyrimidin-9(6H)-ones 10b and 10e against EGFR and PI3K was done using the Molecular Operating Environment software (MOE-Dock) version 2014.0901. The co-crystallized structures of EGFR and PI3K kinases complexed with their native ligands, erlotinib and quinolone LXX, were downloaded from the protein data bank (PDB codes: 1M17 and 3L54, respectively). All minimizations were performed using MOE until an RMSD gradient of 0.05 kcal∙mol−1Å−1 with MMFF94x force field and the partial charges were automatically calculated. Preparation of the enzyme structures was done for molecular docking using Protonate 3D protocol with the default options in MOE. London dG scoring function and Triangle Matcher placement method were used in the docking protocol. Initially, the original ligands were re-docked into the active binding site of EGFR and PI3K kinases to assess the root-mean-square deviation values. Then, the docking studies of the newly targeted […]

[2] = tested on: human prostate PC-3 cancer cell line; assay: In vitro cytotoxic screening (MTT assay), PC-3; type: cell-based; details: average ± standard deviation
Method: as §1, §2, §3, §4, §5

[3] = tested on: human colorectal HCT-116 cancer cell line; assay: In vitro cytotoxic screening (MTT assay), HCT-116; type: cell-based; details: average ± standard deviation
Method: as §1, §2, §3, §4, §5

Compound | Percentage cytotoxicity on MCF-7 ([1]; 12.5 µM) | Percentage cytotoxicity on MCF-7 ([1]; 25 µM) | Percentage cytotoxicity on MCF-7 ([1]; 50 µM) | Percentage cytotoxicity on MCF-7 ([1]; 100 µM) | Percentage cytotoxicity on PC-3 ([2]; 12.5 µM) | Percentage cytotoxicity on PC-3 ([2]; 25 µM) | Percentage cytotoxicity on PC-3 ([2]; 50 µM) | Percentage cytotoxicity on PC-3 ([2]; 100 µM) | Percentage cytotoxicity on HCT-116 ([3]; 12.5 µM) | Percentage cytotoxicity on HCT-116 ([3]; 25 µM) | Percentage cytotoxicity on HCT-116 ([3]; 50 µM) | Percentage cytotoxicity on HCT-116 ([3]; 100 µM) | melting point
O=c1c2c3c(sc2nc2nc([C@@H](O)[C@H](O)[C@H](O)CO)[nH]n12)CCC3 [Compound 11d, 2-((1R,2S,3R)-1,2,3,4-tetrahydroxybutyl)-1,6,7,8-tetrahydro-9H-cyclopenta[4,5]thieno[2,3-d][1,2,4]triazolo[1,5-a]pyrimidin-9-one] | 0.0±0.005% | 29.2±2.9% | 47.9±2.2% | 50.5±0.2% | 5.4±6.8% | 6.8±0.3% | 9.7±0.5% | 25.3±3.8% | 0.0±0.005% | 0.0±0.005% | 0.0±0.005% | 10.0±3.4% | > 300 °C
Cc1nn2c(=O)c3c4c(sc3nc2[nH]1)CCC4 [Compound 5, 2-Methyl-7,8-dihydro-3H-cyclopenta[4,5]thieno[2,3-d][1,2,4]triazolo[1,5-a]pyrimidin-9(6H)-one] | 0.0±0.005% | 0.0±0.005% | 0.0±0.005% | 18.9±10% | 0.0±0.005% | 0.0±0.005% | 0.0±0.005% | 0.0±0.005% | 0.0±0.005% | 0.0±0.005% | 0.0±0.005% | 0.0±0.005% | 93 to 95 °C
